The source of these data is patent US20120251630A1, “REMISSION THERAPY OF CANCER WITH ISOFLAVONOIDS” (MARSHALL EDWARDS, INC., priority 2011, published 2012).

Type in all cases: cell-based, human
Assay [1] concerns EOC stem cells. Briefly: Flow cytometry with JC1 dye, mitochondrial membrane potential. The protocol:
FIG. 5. EOC stem cells were treated with compound 1 in the presence or absence of the MEK inhibitor, U0126. Flow cytometry analysis using JC1 dye illustrates the effect on mitochondrial membrane potential (MMP). FIG. 5 illustrates that inhibition of ERK with U0126 is able to reverse the effect of compound 1 on MMP.
(§1) A panel of CD44+/MYD88+ epithelial ovarian cancer (EOC) stem cells was treated with compound 1 (10 μg/mL) at designated times. CD44+/MYD88+ ovarian cancer stem cells are isolated from either tumor tissue or ascites obtained from patients diagnosed with stage III/IV serous ovarian carcinoma. Mitochondrial function was assessed using the JC1 dye (Biovision Inc), MitoSox dye (Invitrogen), and ApoSENSOR ADP/ATP kit (Biovision Inc.). Protein levels were determined using Western blot analysis. […] The impact of compound 1 on energy production was examined by measuring ADP and ATP levels. […] The stem cells were treated with increasing with compound 1 (10 μg/mL) at times points shown.
Inhibitory studies were done using the specific MEK inhibitor U0126 (10 μM) or the ROS scavenger, MnTBAP (500 μM). […] Flow cytometry analysis using JC1 green fluorescence illustrates the effect of compound 1 on mitochondrial membrane potential. […] The mitochondrial fractions of cells treated with compound 1 in the presence or absence of U0126 were analyzed. […]

A further assay relates to ovarian cancer stem cell. In words: Mitochondrial function assessment (JC1 dye, MitoSox dye, ApoSENSOR ADP/ATP kit). As to conditions: overall conclusion of Example 1. As to the method:
as §1

The test system of assay [2] is EOC stem cells. Briefly: Western blot analysis of mitochondrial fractions, Bax. The protocol: FIG. 6. Western blot analysis using mitochondrial fractions illustrates the effect on mitochondrial Bax. U0126 inhibited compound 1-induced loss of mitochondrial membrane potential and mitochondrial translocation of Bax (member of the proapoptotic Bcl2 family).
(§2) Inhibitory studies were done using the specific MEK inhibitor U0126 (10 μM) or the ROS scavenger, MnTBAP (500 μM). EOC stem cells were treated with compound 1 in the presence or absence of the ROS scavenger, MnTBAP (Alexis Biochemicals). […] (FIG. 4) EOC stem cells were treated with compound 1 in the presence or absence of the MEK inhibitor, U0126 (Sigma Aldrich). EOC stem cells were pre-treated with U0126 (10 μM) for 1 hour before treatment with compound 1. Flow cytometry analysis using JC1 green fluorescence illustrates the effect of compound 1 on mitochondrial membrane potential. Pretreatment with U0126 reduced the percentage of cells that lost mitochondrial membrane potential (59% vs 23% for compound 1 along and compound 1 with U0126, respectively) (FIG. 5). The mitochondrial fractions of cells treated with compound 1 in the presence or absence of U0126 were analyzed. […] (FIG. 6)

The test system of assay [3] is EOC stem cells. In words: Western blot analysis of protein levels (Cox-IV, pS6 kinase, ERK, AMPKα1). As to the method: FIG. 3. Western blot analysis illustrates a decrease in Cox-IV and pS6 kinase, and activation of ERK and AMPKα1 (C).
FIG. 4. EOC stem cells were treated with compound 1 in the presence or absence of the ROS scavenger, MnTBAP. Western blot analysis (FIG. 2) illustrates the effect of MnTBAP pretreatment on mitochondrial ERK, pS6 and β-actin activation. […] Compound 1-induced ROS production leads to ERK activation and loss of mitochondrial membrane potential (MMP).
FIG. 8. Western blot analysis illustrates that treatment of ovarian cancer stem cells with compound 1 in the presence of FBS was able to prevent compound 1 induced decrease in pS6 kinase.
as §1, §2
(§3) EOC stem cells were treated with compound 1 in the presence of 10% fetal bovine serum (FBS).

In assay [4] the test system is CD44+/MYD88+ epithelial ovarian cancer (EOC) stem cells. Briefly: ApoSENSOR ADP/ATP ratio assay kit, ATP and ADP levels. As to the method:
FIG. 2 illustrates the levels of ATP and ADP measured at designated times using Apo-SENSOR ADP/ATP ratio assay kit. […] (p<0.0001 compared to control)
FIG. 7. Compound 1-induced loss of ATP leads to mTor inhibition. EOC stem cells were treated with compound 1 in the presence of 10% FBS. FIG. 7 illustrates the levels of ATP and ADP measured at designated times using ApoS-SENSOR ADP/ATP ratio assay kit. # p<0.001 compared to compound 1 alone.
as §1, §3

For assay [5] the test system is unchanged. In words: Flow cytometry with MitoSox dye, mitochondrial superoxide. As to conditions: 10 μg/mL, designated times. As to the method:
FIG. 1. EOC stem cells were treated with 10 μg/ml compound 1 at designated times. Flow cytometry analysis (FIG. 1) illustrates the increased levels of mitochondrial superoxide using MitoSox dye.
as §1

The mark [6] stands for this setting: in the presence of 10% fetal bovine serum (FBS).

For the compound `COc1ccc(C2c3ccc(O)c(C)c3OCC2c2ccc(O)cc2)cc1` (stereo not drawn) [compound 1, 3-(4-hydroxyphenyl)-4-(4-methoxyphenyl)-8-methylchroman-7-ol], in the assay on EOC stem cells [1] (compound 1 alone), the “percentage of cells that lost mitochondrial membrane potential” value stood at 59%. Moreover, the “percentage of cells that lost mitochondrial membrane potential” value with EOC stem cells [1] (pre-treated with MEK inhibitor U0126 (10 μM) for 1 hour before compound 1) is reported as 23%. For the same compound, the mitochondrial function result in the assay with ovarian cancer stem cell is recorded as “significantly inhibits mitochondrial function”. The “mitochondrial Bax (proapoptotic Bcl2 family member)” value in the assay with EOC stem cells [2] (compound 1 alone, mitochondrial fractions) is reported as “upregulates”. For the same compound, the “compound 1-induced upregulation of mitochondrial Bax” value with EOC stem cells [2] (pre-treatment with U0126 followed by compound 1) is given as “prevented compound 1-induced upregulation”. For the same compound, in the assay on EOC stem cells [3] (10 μg/mL), the “Cox-IV protein level (Western blot)” value is on record as “decreases activation”, the “activation of AMPKα1 (Western blot)” value is recorded as “increases activation”, the “activation of ERK (Western blot)” value is on record as “increases activation” and the “activation of pS6 kinase (Western blot)” value is given as “decreases activation”. Further, the “compound 1-induced decrease in pS6k” value with EOC stem cells [3] (setting [6]) is recorded as “prevented compound 1-induced decrease in pS6k”. In the assay with EOC stem cells [3] (in the presence of ROS scavenger MnTBAP (500 μM)), the “compound 1-induced activation of mitochondrial ERK” value is listed as “MnTBAP inhibited compound 1-induced activation of mitochondrial ERK”. The ADP level entry in assay [4] (10 μg/mL, after 2 and 4 hours of treatment) is reported as “accumulated ADP”. Also, in assay [4] (10 μg/mL, after 2 and 4 hours of treatment, p<0.0001 compared to control), the ATP production result is recorded as “decrease in ATP production”. Besides, the ATP loss entry in assay [4] (setting [6]) is “Abrogation of ATP loss”. Besides, the “mitochondrial superoxide (MitoSox fluorescence)” value in assay [5] was “increase in mitochondrial superoxide”.
